Experimental data published in US9023789B2, “Amylin analogs and pharmaceutical compositions thereof” (Novo Nordisk A/S, priority 2012, dated 2015).
Where two headings read alike, the source gives them in different places. Blank lines part the entries; values can stand above or below the compound they belong to.

Tests used:
rat calcitonin receptor = molecular target: T1, rat calcitonin receptor (Rattus norvegicus, UniProt P32214); assay: ASSAY (VIII) binding to the rat calcitonin receptor; conditions: Table 7, read-out: rCTR bind IC50
T1 construct: expressed in transfected cells; host or cells: BHK tk'ts 13 (transient, FuGENE 6), membranes
T1 sequence (P32214 25-479 isoform P32214-2 limits assumed): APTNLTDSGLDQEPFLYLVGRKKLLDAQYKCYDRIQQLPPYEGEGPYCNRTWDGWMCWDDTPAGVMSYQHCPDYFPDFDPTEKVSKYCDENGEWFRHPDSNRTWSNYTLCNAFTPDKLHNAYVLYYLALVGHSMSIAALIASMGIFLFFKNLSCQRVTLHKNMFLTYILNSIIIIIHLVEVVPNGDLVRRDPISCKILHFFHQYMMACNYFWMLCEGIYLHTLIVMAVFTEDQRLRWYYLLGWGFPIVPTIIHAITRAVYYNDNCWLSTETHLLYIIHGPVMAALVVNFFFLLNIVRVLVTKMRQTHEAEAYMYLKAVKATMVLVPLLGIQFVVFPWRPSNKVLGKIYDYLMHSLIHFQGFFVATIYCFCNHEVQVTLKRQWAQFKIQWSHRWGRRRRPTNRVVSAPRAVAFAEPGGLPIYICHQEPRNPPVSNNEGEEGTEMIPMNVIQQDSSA
Description: Assay (VIII)—Determination of Binding to the Rat Calcitonin Receptor
(§1) The BHK tk′ts 13 cells were transiently transfected with rat calcitonin receptor using FuGENE® 6 (Roche), according to the manufacturer's recommendations. Cells were grown in DMEM with 10% FBS and 1% Pen/Strep. Approximately 48 hours after transfection, the cells were harvested and membranes were prepared.

[1] = molecular target: T2, rat amylin receptor (rat calcitonin receptor + rat RAMP 3) (Rattus norvegicus, UniProt P32214+Q9JJ73); assay: ASSAY (VI) binding to the rat amylin receptor
T2 construct: expressed in transfected cells; host or cells: BHK tk'ts 13 (transient, FuGENE 6), membranes
T2 sequence (P32214 25-479 isoform P32214-2 limits assumed): T1 sequence (P32214 25-479 isoform P32214-2 limits assumed)
T2 sequence (Q9JJ73 23-147 partner): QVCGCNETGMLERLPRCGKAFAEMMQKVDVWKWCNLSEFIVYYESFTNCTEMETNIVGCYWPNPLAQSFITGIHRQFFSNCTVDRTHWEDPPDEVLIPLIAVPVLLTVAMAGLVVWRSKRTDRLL
Description: as §1, with “Assay (VI)—Determination of the Binding to the Rat Amylin Receptor […] The” for “The”, “Cells were grown in DMEM with 10% FBS and 1% Pen/Strep.” left out

[2] = molecular target: T3, human amylin receptor (membranes from Amylin 3(a)/CRE-luc cells) (Homo sapiens, UniProt O60896+P30988); assay: ASSAY (V) binding to the human amylin receptor (SPA, 125I-rat amylin);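 note: competition binding of cell membranes (35 ng/µL) mixed with SPA beads in 384-well plates at 40 µL total volume, read by scintillation counting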
T3 construct: expressed in transfected cells
T3 sequence (P30988 25-474): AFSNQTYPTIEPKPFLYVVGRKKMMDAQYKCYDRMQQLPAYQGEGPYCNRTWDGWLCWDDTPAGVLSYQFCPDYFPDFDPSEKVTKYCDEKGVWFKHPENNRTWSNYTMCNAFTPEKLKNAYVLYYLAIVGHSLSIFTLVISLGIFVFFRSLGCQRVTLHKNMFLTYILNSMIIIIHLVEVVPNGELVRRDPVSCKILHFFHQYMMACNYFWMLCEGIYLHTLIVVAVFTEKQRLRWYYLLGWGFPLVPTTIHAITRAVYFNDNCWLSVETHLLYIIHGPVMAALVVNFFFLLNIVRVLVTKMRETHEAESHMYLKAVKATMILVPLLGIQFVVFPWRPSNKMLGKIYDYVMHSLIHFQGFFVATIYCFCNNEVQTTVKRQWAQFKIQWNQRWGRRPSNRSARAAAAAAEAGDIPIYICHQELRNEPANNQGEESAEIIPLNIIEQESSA
T3 sequence (O60896 24-148 partner): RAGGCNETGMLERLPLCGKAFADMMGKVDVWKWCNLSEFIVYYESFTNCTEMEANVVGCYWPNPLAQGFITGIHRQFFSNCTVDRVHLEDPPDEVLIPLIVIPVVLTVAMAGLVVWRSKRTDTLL

[3] = molecular target: T4, human amylin 3(a) receptor (human calcitonin receptor + RAMP-3) in BHK570 cells (Homo sapiens, UniProt O60896+P30988); assay: ASSAY (II)a functional assay, human amylin receptor (CRE luciferase); assay type: cell-based
T4 construct: expressed in transfected cells
From the text: 1. Luciferase Assay Outline
Activation of calcitonin and amylin (coexpression of calcitonin receptor and receptor activity modifying proteins (RAMP)) receptors lead to increased intracellular concentrations of cAMP. Consequently, transcription is activated by promoters containing multiple copies of the cAMP response element (CRE). It is thus possible to measure amylin activity by the use of a CRE luciferase reporter gene introduced into BHK cells also expressing calcitonin or amylin receptors.
2. Construction of Calcitonin (a)- and Amylin 3(a)-Receptor/CRE-Luc Cell Line.
The cell line was further transfected with RAMP-3, using standard methods. This turns the calcitonin receptor into an amylin 3(a) receptor. Methotrexate, Neomycin, and Hygromycin are selection markers for luciferase, the calcitonin receptor, and RAMP-3, respectively.
To perform activity assays, BHK calcitonin (a) receptor- or amylin 3(a)-receptor/CRE-luc cells were seeded in white 96 well culture plates at a density of about 20.000 cells/well. […] After incubation overnight at 37° C. and 5% CO2, the growth medium was replaced by 50 μl/well assay medium (DMEM (without phenol red), Glutamax™, 10% FBS, and 10 mM Hepes, pH 7.4). Further, 50 μl/well of standard or sample in assay buffer were added. After 3 hours incubation at 37° C. and 5% CO2, the assay medium with standard or sample were removed and replaced by 100 μl/well PBS. Further, 100 μl/well LucLite™ was added. The plates were sealed and incubated at room temperature for 30 minutes. Finally, luminescence was measured on a TopCounter (Packard) in SPC (single photon counting) mode.

Sprague Dawley (SD) rats = assay: ASSAY (I) efficacy testing on appetite (food intake) using an ad libitum fed rat model; assay type: in vivo; conditions: rat, 30 nmol/kg
From the text: Sprague Dawley (SD) rats from Taconic Europe, Denmark are used for the experiments. The rats have a body weight 200-250 g at the start of experiment. The rats arrive at least 10-14 days before start of experiment to allow acclimatization to experimental settings. During this period the animals are handled at least 2 times. After arrival rats are housed individually for one week in a reversed light/dark phase (meaning that lights are off during daytime and on during nighttime) for two weeks. Since rats are normally active and eat their major part of their daily food intake during the dark period, rats are dosed in the morning right before lights are turned off. This set-up results in the lowest data variation and highst test sensitivity. The experiment is conducted in the rats' home cages and rats have free access to food and water throughout the acclimatization period and the experiment period. Each dose of derivative is tested in a group of 5-8 rats. A vehicle group of 6-8 rats is included in each set of testing. Rats are dosed once according to body weight with a 0.01-3 mg/kg solution administered intraperitoneally (ip), orally (po) or subcutaneously (sc). The time of dosing is recorded for each group. After dosing, the rats are returned to their home cages, where they then have access to food and water. The food consumption is recorded individually continuously by online registration or manually every hour for 7 hours, and then after 24 h and sometimes 48 h. At the end of the experimental session, the animals are euthanized.
The individual data are recorded in Microsoft excel sheets. Outliers are excluded after applying the Grubbs statistical evaluation test for outliers, and the result is presented graphically using the GraphPad Prism program.

[4] = ASSAY (IV) determination of solubility; assay type: physicochemical
Description: Assay (IV)—Determination of Solubility
The polypeptide was dissolved in water at −500 nmol/ml and mixed 1:1 with a series of buffers (100 mM glycylglycine pH 3.0, 100 mM glycylglycine pH 4.0, 100 mM glycylglycine pH 5.0, 100 mM bistrispropane pH 6.0, 100 mM bistrispropane pH 6.5, 100 mM bistrispropane pH 7.0, 100 mM bistrispropane pH 7.5, 100 mM bistrispropane pH 8.0). After 18 hours at room temperature the samples were centrifuged and the polypeptide concentration determined by UPLC.

IC50 (rat calcitonin receptor): 536 nM | IC50 ([1]; Table 7, binding to rat amylin receptor, read-out: rAmylin-R bind IC50): 1.69 nM | Ratio rCT/rAmylin binding ([1]; Table 7, rat binding selectivity, rCTR IC50 / rAmylin-R IC50): 316.7 | Ratio rCT/rAmylin binding ([1]; Table 7a (preferred compounds), rat binding selectivity, rCTR IC50 / rAmylin-R IC50): 316.7 | Ratio rCT/rAmylin binding ([1]; ratio of rCTR bind IC50 to rAmylin-R bind IC50): 316.7 | Ratio hCT/hAmylin binding ([2]; Table 5, selectivity, hCTR bind IC50 / hAmylin-R bind IC50): 306.6 | Ratio hCT/hAmylin binding ([2]; Table 5a, selectivity, hCTR bind IC50 / hAmylin-R bind IC50): 306.6 | Ratio hCT/hAmylin binding ([2]; Table 5b, selectivity, hCTR bind IC50 / hAmylin-R bind IC50): 306.6 | Ratio hCT/hAmylin binding ([2]; Table 5c, selectivity, hCTR bind IC50 / hAmylin-R bind IC50): 306.6 | Ratio hCT/hAmylin binding ([2]; Table 7, human binding selectivity, included for comparison): 306.6 | Ratio hCT/hAmylin binding ([2]; Table 7a (preferred compounds), human binding selectivity, included for comparison): 306.6 | Ratio hCT/hAmylin binding ([2]; ratio of human calcitonin receptor binding IC50 to human amylin receptor binding IC50): 306.6 | Ratio hCT/hAmylin funct. ([3]; hCTR funct. EC50 divided by hAmylin-R funct. EC50): 261.1 | Ratio hCT/hAmylin funct. ([3]; hCTR funct. EC50 over hAmylin-R funct. EC50): 261.1 | Ratio hCT/hAmylin funct. ([3]; human functional selectivity: hCTR funct. EC50 / hAmylin-R funct. EC50): 261.1
Compound: CC[C@H](C)[C@H](NC(=O)[C@H](C)NC(=O)CNC(=O)[C@H](Cc1ccccc1)NC(=O)[C@H](CC(N)=O)NC(=O)[C@@H]1CCCN1C(=O)[C@H](CO)NC(=O)[C@H](CO)NC(=O)[C@H](Cc1c[nH]cn1)NC(=O)[C@H](CCCNC(=N)N)NC(=O)[C@H](CC(C)C)NC(=O)[C@H](Cc1ccccc1)NC(=O)[C@@H](CC(=O)O)NC(=O)[C@H](C)NC(=O)[C@H](CC(C)C)NC(=O)[C@H](CCCNC(=N)N)NC(=O)[C@H](CCC(N)=O)NC(=O)[C@@H](NC(=O)[C@H](C)NC(=O)[C@@H]1CSSC[C@H](NC(=O)[C@@H](N)CCCCNC(=O)CC[C@H](NC(=O)CC[C@H](NC(=O)CCCCCCCCCCCCCCCCCCC(=O)O)C(=O)O)C(=O)O)C(=O)N[C@@H](CC(N)=O)C(=O)N[C@@H]([C@@H](C)O)C(=O)N[C@@H](C)C(=O)N[C@@H]([C@@H](C)O)C(=O)N1)[C@@H](C)O)C(=O)N1CCC[C@H]1C(=O)N[C@@H](CO)C(=O)N[C@@H](CO)C(=O)N[C@H](C(=O)N[C@@H](CC(N)=O)C(=O)N[C@H](C(=O)NCC(=O)N[C@@H](CO)C(=O)N[C@@H](CCCNC(=N)N)C(=O)N[C@H](C(=O)N[C@@H](Cc1ccc(O)cc1)C(N)=O)[C@@H](C)O)C(C)C)[C@@H](C)O [Example 131]
Food intake reduction 0-24 h 30 nmol/kg (%) (Sprague Dawley (SD) rats; 0-24 h): 17% | Food intake reduction 24-48 h 30 nmol/kg (%) (Sprague Dawley (SD) rats; 24-48 h): 14%

solubility at 18 h ([4]; bistrispropane buffer, pH 6.5, read-out: Solubility pH 6.5 Concentration): ≥ 200 µM | solubility at 18 h ([4]; bistrispropane buffer, pH 7.5, read-out: Solubility pH 7.5 Concentration): ≥ 200 µM | solubility at 18 h ([4]; bistrispropane buffer, pH 6.0, read-out: Solubility pH 6.0 Concentration): ≥ 200 µM | solubility at 18 h ([4]; bistrispropane buffer, pH 7.0, read-out: Solubility pH 7.0 Concentration): ≥ 200 µM | solubility at 18 h ([4]; bistrispropane buffer, pH 8.0, read-out: Solubility pH 8.0 Concentration): ≥ 200 µM | solubility at 18 h ([4]; glycylglycine buffer, pH 3.0, read-out: Solubility pH 3.0 Concentration): ≥ 200 µM | solubility at 18 h ([4]; glycylglycine buffer, pH 4.0, read-out: Solubility pH 4.0 Concentration): ≥ 200 µM | solubility at 18 h ([4]; glycylglycine buffer, pH 5.0, read-out: Solubility pH 5.0 Concentration): ≥ 200 µM | IC50 (rat calcitonin receptor): 30.9 nM
Compound: CC[C@H](C)[C@H](NC(=O)[C@H](C)NC(=O)CNC(=O)[C@H](Cc1ccccc1)NC(=O)[C@H](CC(N)=O)NC(=O)[C@@H]1CCCN1C(=O)[C@H](CO)NC(=O)[C@H](CO)NC(=O)[C@H](Cc1c[nH]cn1)NC(=O)[C@H](CCCNC(=N)N)NC(=O)[C@H](CC(C)C)NC(=O)[C@H](Cc1ccccc1)NC(=O)[C@H](CC(=O)O)NC(=O)[C@H](C)NC(=O)[C@H](CC(C)C)NC(=O)[C@H](CCCNC(=N)N)NC(=O)[C@H](CCC(N)=O)NC(=O)[C@@H](NC(=O)[C@H](C)NC(=O)[C@@H]1CSSC[C@H](NC(=O)[C@@H](N)CCCCN)C(=O)N[C@@H](CC(N)=O)C(=O)N[C@@H]([C@@H](C)O)C(=O)N[C@@H](C)C(=O)N[C@@H]([C@@H](C)O)C(=O)N1)[C@@H](C)O)C(=O)N1CCC[C@H]1C(=O)N[C@@H](CO)C(=O)N[C@@H](CO)C(=O)N[C@H](C(=O)N[C@@H](CC(N)=O)C(=O)N[C@H](C(=O)NCC(=O)N[C@@H](CO)C(=O)N[C@@H](CCCNC(=N)N)C(=O)N[C@H](C(=O)N[C@@H](Cc1ccc(O)cc1)C(N)=O)[C@@H](C)O)C(C)C)[C@@H](C)O [Example 132]
